Measured values published in patent US6503721B2, “Screen for compounds with affinity for nucleic acids” (Anadys Pharmaceuticals, Inc., priority 1995, dated 2003).
pIC50: −log10 of the molar value.

Key:
AB-RNA [1] = assay: Hybrid capture on streptavidin-coated paramagnetic beads (AB-RNA : biotinylated oligonucleotide RBS-96-60); type: binding
Source text: SA coated paramagnetic beads: The washing step required when using SA-beads can be facilitated by using paramagnetic-SA coated beads (PMP-SA). These beads are commercially available (Promega, Madison, Wis.) and can be concentrated and held by a magnet. Positioning the magnet under the plate during washing steps concentrates and retains the beads at the bottom of the well during the washing procedure thus preventing loss of beads and allowing faster operation. An example of the use of this method is described in Example 2 below. The [^32P]-labelled ATP-binding RNA described in Example 1 above (AB-RNA) was heat denatured at 90° C. for 2 min in binding buffer (50 mM Tris pH 7.5, 200 mM NaCl, and 10 mM MgCl2) and chilled on ice for 2 min. 37.5 μl aliquots of the heat denatured AB-RNA were then mixed with 12.5 μl of a solution containing 12.5 pmol of the 5′-biotinylated oligonucleotide RBS-96-60 (having a nucleotide sequence identical to RBS-87-8A described in Example 1 above) and varying amounts of ATP or UTP. After a brief incubation at room temperature, the mixture was transferred into 96-well plates containing 0.5 mg paramagnetic beads coated with streptavidin (PMP-SA) (Promega, Madison, Wis.). Plates were incubated at room temperature for 15 min to allow binding. […] [^32P]-labelled AB-RNA bound to the beads was then quantitated by Cerenkov counting in a Microbetta LSC-counter (Wallac).

AB-RNA-F = assay: Fluorescence SCAN assay, fluorescein-labelled AB-RNA-F and unlabelled oligonucleotide 67B; type: binding; details: for effect on fluorescence increase: FIG. 28B
Protocol: B. Experimental results: While developing a SCAN assay based on FET between 3′-fluorescein labeled AB-RNA (AB-RNA-F) and a 5′-rhodamine labeled oligonucleotide, it was unexpectedly observed in a control experiment that a substantial increase in fluorescein emission at 535 nm occurred upon addition of an oligonucleotide carrying no fluorescent labels (FIG. 28A). Reactions containing 50 mM Tris pH 7.5, 200 mM NaCl, 10 mM MgCl2, and 60 nM AB-RNA-F were monitored at 535 nm emission (485 nm excitation) in a CytoFluor II fluorescence multi-well plate reader (PerSeptive Biosystems, Framingham,Mass.) for increasing times after the addition of oligonucleotide 67B. Because of the high reproducibility and sensitivity of fluorescence spectrophotometers, a 2-fold increase in fluorescence represents more that sufficient change in signal to use it as a sensitive assay. Therefore, the effect of ATP, GTP and UTP was tested in SCAN reactions containing AB-RNA-F and the unlabeled oligonucleotide 67B (FIG. 28B).

AB-RNA [2] = assay: Gel shift assay: hybridization of radiolabelled AB-RNA to complementary DNA oligonucleotide RBS-87-8A; type: binding; details: 30 μM ligand
Source text: A gel shift protocol, though nominally a low-throughput method, is an important tool for the initial selection of the assay configuration for oligonucleotide-based methods to be used with each particular target RNA. Typically, the target RNA is transcribed in vitro, using as template a DNA that contains the sequence for the T7-RNA polymerase promoter followed by a region encoding the target RNA, and [^32P]-UTP to produce radiolabelled RNA. Conditions for the T7 RNA polymerase transcription reaction using oligonucleotide templates have been described by Milligan et al., Nuc. Acids Res., 15: 8783, 1987. The [^32P]-labelled target RNA is optionally heat denatured at 90° C. for 2 min and chilled on ice for 2 min, after which aliquots are incubated in the absence and presence of test ligands and increasing concentrations of a complementary oligonucleotide. The reaction mixtures are then resolved in polyacrylamide native gels containing or lacking the test ligands.
AB-RNA was transcribed using as template the DNA oligonucleotide RBS-87-8A, (5′-GGAACCTTGCCGGCACCGAAGTGCCGCAGTTTCTTCCCAAGGTTCCTATAGTGAGTCGTATTA-3′-SEQ ID NO:1), which contains the sequence for the T7-RNA polymerase promoter followed by a region encoding AB-RNA. [32P]-labelled AB-RNA was obtained by including [32P]-UTP in the transcription reaction. […]

AB RNA [3] = assay: SCAN assay under equilibrium conditions (dissociation of pre-formed AB RNA:oligonucleotide complexes); type: binding; details: 100 μM ATP, 20 nM AB RNA, 100 nM oligonucleotide
Source text: A screening assay having this configuration has the advantage of removing time constraints for various steps in the assay. In addition, thermodynamic parameters associated with ligand binding can be more easily derived from the results of the assay. Using a series of oligonucleotides of various length and target sites comprising AB RNA, a group of oligonucleotides has been identified that fully equilibrate with ATP (an example is shown in FIG. 20, top panel). The oligonucleotide used is complementary to the sequence shown in bold-faced letters (FIG. 20, top panel). Target RNA:oligonucleotide complexes were pre-formed by incubated a solution containing 100 nM AB RNA and 500 nM oligonucleotide for 2 h at 25° C. Dissociation was initiated by diluting the reaction 5-fold in the presence or absence of 100 μM ATP (resulting in final concentrations of AB RNA, 20 nM; oligonucleotide, 100 nM; ATP, 100 μM). Binding of hybrids to nitrocellulose filters was performed as described above.

AB-RNA [4] = assay: SCAN nitrocellulose filter binding assay, AB-RNA and biotinylated oligonucleotide 67B
Protocol: Adsorption to nitrocellulose filters: This embodiment takes advantage of the fact that most proteins tightly adsorb to nitrocellulose filters. When using a biotinylated oligonucleotide and a labelled target RNA, free SA or a SA derivative such as SA:alkaline phosphatase conjugate (SA:AP), SA:β-galactosidase (SA:BG), or other SA-conjugate or fusion protein, is added to the reaction to allow binding to the biotin moiety in the oligonucleotide. Subsequently, the reaction is filtered through 96-well nitrocellulose filter plates (Millipore, Bedford, Mass., HATF or NC). Labeled target RNA hybridized to the biotinylated oligonucleotide is retained in the filter through the adsorption of SA or its derivative to the filter, while unhybridized RNA passes through. […] Therefore, the use of SA fusion proteins or conjugates is preferred. An example of the use of this method is described in Example 3 below. SCAN reactions containing 100 nM radiolabeled AB-RNA and 250 nM biotinylated oligonucleotide 67B were incubated with increasing amounts of ATP or UTP as test ligands. In the absence of test ligand, 70% of AB-RNA was retained on NC-filters. Inhibition of RNA retention on NC-filters Inhibition of RNA retention on NC-filters (% inhibtion) was obtained as (1−(R/R0)×100), where R0 is retention without test ligand and R is retention with test ligand. […]

HIV RRE RNA = assay: SCAN nitrocellulose filter binding assay, RRE RNA and biotinylated complementary oligonucleotide; details: heterologous RNA target, FIG. 17
Protocol: Adsorption to nitrocellulose filters: This embodiment takes advantage of the fact that most proteins tightly adsorb to nitrocellulose filters. When using a biotinylated oligonucleotide and a labelled target RNA, free SA or a SA derivative such as SA:alkaline phosphatase conjugate (SA:AP), SA:β-galactosidase (SA:BG), or other SA-conjugate or fusion protein, is added to the reaction to allow binding to the biotin moiety in the oligonucleotide. Subsequently, the reaction is filtered through 96-well nitrocellulose filter plates (Millipore, Bedford, Mass., HATF or NC). Labeled target RNA hybridized to the biotinylated oligonucleotide is retained in the filter through the adsorption of SA or its derivative to the filter, while unhybridized RNA passes through. […] Therefore, the use of SA fusion proteins or conjugates is preferred. An example of the use of this method is described in Example 3 below.
The target RNA was an RNA molecule containing the binding site for the HIV Rev protein (Rev Responsive Element, RRE; 5′-GAAUACUAUGGGCGCAGCGUCAAUGACGCUGACGGUACAGGCCAGACAAUUAUUGUCUGGUAUAGU-3′- SEQ ID NO:2) which had been labelled with 32P as described in Example 1 above. […] The filtrate was further washed with 400 μl of the same buffer and the amount of RRE retained in the filter was determined by liquid scintillation counting. […]

AB RNA [5] = assay: UV absorbance (260 nM) thermal melting of AB RNA; type: binding
Protocol: The experiment described below was performed to monitor the stabilization of an RNA structure upon ligand binding. In this experiment, absorbance at 260 nm was monitored as the temperature of the sample was increased. The increase in temperature causes the RNA to unfold, thereby allowing individual bases to absorb more ultraviolet light.

competition with the oligonucleotide for binding to AB-RNA (AB-RNA [2])	SMILES	effect on amount of hybrids bound to PMP-SA beads (AB-RNA [1]; increasing ligand concentrations)	effect on fluorescence increase (AB-RNA-F)	pIC50 (AB-RNA [1]; PMP-SA beads, room temperature, read-out: ligand concentration reducing the amount of hybrids formed by 50%)	pIC50 (AB-RNA-F; 60 nM AB-RNA-F, emission 535 nm, read-out: IC50 for inhibition of fluorescence increase)	inhibition of oligo:RNA complex (AB RNA [3])	pIC50 (AB-RNA [4]; 100 nM AB-RNA, 250 nM oligonucleotide 67B, read-out: ligand concentration inhibiting AB-RNA retention on NC-filters by 50%)	specificity factor ATP versus UTP (AB-RNA [4]; ratio of concentrations for 50% inhibition)	effect on RRE based SCAN reactions (HIV RRE RNA)	temperature of new transition in first derivative of absorbance, seen only with ligand (AB RNA [5]; absorbance at 260 nm, FIG. 21)	effect of ligand on RNA structure (AB RNA [5]; thermal melting)
unable to compete	O=c1ccn([C@@H]2O[C@H](COP(=O)(O)OP(=O)(O)OP(=O)(O)O)[C@@H](O)[C@H]2O)c(=O)[nH]1 [UTP]	no effect	some effect at much higher concentrations	–	–	–	–	–	–	–	–
–	Nc1ncnc2c1ncn2[C@@H]1O[C@H](COP(=O)(O)OP(=O)(O)OP(=O)(O)O)[C@@H](O)[C@H]1O [ATP]	–	–	4.60	2.30	approximately 60%	2.30	100 fold	no effect	40 °C	stabilizes the RNA structure
–	Nc1nc2c(ncn2[C@@H]2O[C@H](COP(=O)(O)OP(=O)(O)OP(=O)(O)O)[C@@H](O)[C@H]2O)c(=O)[nH]1 [GTP]	–	no effect at all	–	–	–	–	–	–	–	–
